Measurements taken from patent publication US20250302791A1, “METHOD FOR TREATING AND/OR PREVENTING EPILEPSY AND REDUCING SIDE EFFECT OF ANTI-EPILEPTIC DRUG BY USING CYNARIN” (FU JEN CATHOLIC UNIVERSITY, priority 2024, published 2025).

How the values were obtained:
[1] = tested on: KA-induced epilepsy model in rats; test: kainic acid (KA)-induced seizure behavior in rats, Racine scale scoring (seizure score and latency); format: in vivo, Sprague-Dawley rats
Text: Experimental animals are as follows. Male Sprague-Dawley rats (weight 200-250 g) purchased from BioLASCO in Taipei were housed in the Animal Center of Fu Jen Catholic University and maintained in a 12-h light/dark cycle with food and water available ad libitum. Rats were allowed to acclimate to laboratory conditions for at least 3 days before the start of the experiment.
The experimental design of the present invention is as follows. Cynarin pretreatment reduces epileptic behavior in animals induced by kainic acid (KA). […] Behavioral scoring was based on the Racine scale (1972), see FIG. 1.
Experimental grouping is as follows. […]
The experimental protocol for Racine scale behavioral scoring is as follows. The rats' epileptic seizure activity was continuously monitored for 3 hours, and epileptic behavior was scored according to the 1972 Racine scale. […]
Statistical analysis is as follows. […] Data are expressed as mean±standard error (SEM). Statistical significance was determined by one-way analysis of variation (ANOVA), combined with Bonferroni's post hoc test, and a p-value less than 0.05 was used as the criterion for significant differences.
The rats were pretreated either with normal saline (control), or CYN (0.5-25 mg/kg/day, p.o.), or CBZ (50 or 100 mg/kg/day, p.o.) or CYN 5 mg/kg/day+CBZ 50 mg/kg/day (p.o.) for 7 days before KA injection (15 mg/kg, i.p.). […] Data are expressed as mean±SEM. […]

[2] = tested on: hippocampal CA1/CA3 nerve cells of KA-treated rats; test: NeuN staining of hippocampal CA1/CA3 nerve cells in KA-treated rats; format: in vivo; conditions: Cynarin 10 mg/kg p.o. once daily for 7 days before KA 15 mg/kg i.p.; NeuN staining 72 h after KA
Protocol: In this example, rats were divided into four groups: a control group, a KA-only (15 mg/kg) treatment group, a Cynarin (CYN) (10 mg/kg) plus KA (15 mg/kg) treatment group, and a triple treatment group consisting of Cynarin (CYN) (5 mg/kg), Carbamazepine (CBZ) (50 mg/kg), and KA (15 mg/kg). During the experiment, except for the control group, rats in each group were administered Cynarin orally once daily for seven days. Then, on the eighth day, all experimental groups, except the control group, were further treated by intraperitoneal injection of KA (15 mg/kg).
FIGS. 3A and 3B show the effect of Cynarin (CYN) pretreatment on kainic acid (KA)-induced nerve cell death in the hippocampus of rats. (3A) Representative images of Neuronal nuclei (NeuN) staining at 72 h after KA i.p. injection. (3B) Semiquantitative analysis of NeuN-positive cells in the CA1 and CA3 regions. Data are mean±SEM (n=5 per group). ***, p<0.001 vs. control group. #, p<0.001 vs. KA group.

Structure (SMILES): O=C(/C=C/c1ccc(O)c(O)c1)O[C@@H]1C[C@@](OC(=O)/C=C/c2ccc(O)c(O)c2)(C(=O)O)C[C@@H](O)[C@@H]1O [CYN, Cynarin]
- effect on KA-induced epilepsy (seizure score and latency) ([1]; CYN 0.5 mg/kg/day p.o. for 7 days before KA 15 mg/kg i.p., rats observed 3 h): did not affect the epilepsy induced by KA
- inhibitory effect on epileptic seizure behavior ([1]; CYN 10 mg/kg/day p.o. for 7 days before KA 15 mg/kg i.p., compared with CYN 5 and 25 mg/kg, equivalent to CBZ 100 mg/kg): strongest inhibitory effect on epileptic seizure behavior in animals
- KA-induced reduction of the number of hippocampal CA1/CA3 nerve cells (NeuN-positive cells) [2]: can also be reduced
